Results published in patent US20080033026A1, “Antimicrobial compositions, methods and systems” (priority 2006, published 2008).

Tested on: Campylobacter jejuni (ATCC 29428)
Test: Preservative effectiveness on food pathogens (US Pharmacopoeia 23)
Assay type: cell-based
Method: The effectiveness of 9-decenoic acid on food pathogens was determined using the protocol on preservative effectiveness found in the US Pharmacopoeia 23, 1995.
Stock cultures of the Listeria monocytogenes (ATCC 1911-1), Salmonella enteritidis (ATCC 13076) and Campylobacter jejuni (ATCC 29428) were transferred for at least three consecutives days on Trypticase Soy Agar (TSA) and incubated at 30-35° C. for 18-24 hours. On the day of the test, the cells were washed from the agar surface with sterile saline containing 0.05% w/v Polysorbate 80 (SS+) and the suspension was centrifuged at 2000 rpm for 15 minutes and resuspended in SS+. The suspension was diluted to approximately 10^8 CFU/ml.
[…] The samples were dispensed in 20 ml aliquots in sterile test tubes. For each concentration tested, a 0.1 ml aliquot of each inoculum was added to a final concentration of 10^5 to 10^6 CFU/ml. The tubes were incubated at room temperature and sampled on days 0, 1, 2, 4, 7, 14, 21 and 28.
At each sample point, 1.0 ml aliquots were withdrawn, serially diluted and plated in triplicate on TSA. The plates were incubated at 30-35° C. for 2-4 days. The colonies were counted and the average CFU/ml was calculated. Controls for purity, viability and sterility were performed as described previously.
According to the US Pharmacopoeia, a test compound is an effective preservative if the concentrations of viable bacteria remain at or below the initial concentrations during the first fourteen days and after 28 days.
Additionally, test organisms in Tables 9-11 were exposed to the 9-decenoic acid for several minutes before analysis at Day 0. As shown in the Tables 9-11, significant biocidal activity was observed even within this short time period for the test organisms, illustrating the effectiveness of 9-decenoic acid as a biocidal agent.

C=CCCCCCCCC(=O)O [9-decenoic acid]
2.8 log: Log reduction (0.015% 9-decenoic acid, exposure day 0)
2 days: Exposure time at which bactericidal (at 0.0078%)
0 log: Log reduction (0.0078% 9-decenoic acid, exposure day 0)
5.1 log: Log reduction (0.0078% 9-decenoic acid, exposure day 2) | Log reduction (0.0078% 9-decenoic acid, exposure day 4) | Log reduction (0.0078% 9-decenoic acid, exposure day 7) | Log reduction (0.0078% 9-decenoic acid, exposure day 14) | Log reduction (0.0078% 9-decenoic acid, exposure day 21) | Log reduction (0.0078% 9-decenoic acid, exposure day 28) | Log reduction (0.015% 9-decenoic acid, exposure day 1) | Log reduction (0.015% 9-decenoic acid, exposure day 2) | Log reduction (0.015% 9-decenoic acid, exposure day 4) | Log reduction (0.015% 9-decenoic acid, exposure day 7) | Log reduction (0.015% 9-decenoic acid, exposure day 14) | Log reduction (0.015% 9-decenoic acid, exposure day 21) | Log reduction (0.015% 9-decenoic acid, exposure day 28) | Log reduction (0.03% 9-decenoic acid, exposure day 0) | Log reduction (0.03% 9-decenoic acid, exposure day 1) | Log reduction (0.03% 9-decenoic acid, exposure day 2) | Log reduction (0.03% 9-decenoic acid, exposure day 4) | Log reduction (0.03% 9-decenoic acid, exposure day 7) | Log reduction (0.03% 9-decenoic acid, exposure day 14) | Log reduction (0.03% 9-decenoic acid, exposure day 21) | Log reduction (0.03% 9-decenoic acid, exposure day 28)
0 days: Exposure time at which bactericidal (for 0.003%)
≤ 0.0078%: Concentration at which effective preservative (US Pharmacopoeia definition, 28 days)
1 days: Exposure time at which bactericidal (at 0.0015%)
0.67 log: Log reduction (0.0078% 9-decenoic acid, exposure day 1)
